Data taken from US12673946B2, “Pyrimidin-4(3H)-one derivatives as TRPV4 antagonists” (RaQualia Pharma Inc., priority 2020, dated 2026).

Biological target: T1, human TRPV4 (Homo sapiens, UniProt Q9HBA0)
T1 construct: host or cells: tetracycline-inducible Flp-In T-REx 293 cells
Assay: Hypotonicity-induced Ca2+ influx (Fluo-4, FDSS)
Assay type: cell-based
In short: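 Flp-In T-REx 293 cells with tetracycline-induced human TRPV4, loaded with Fluo-4 for 60 min at 25 °C. Compound added 5 min before hypotonic mannitol/CaCl2 solution. Ca2+ signal recorded for 4.5 min on FDSS.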

[1] = Flp-In T-REx 293 cells expressing human TRPV4, examples listed under heading 'Human IC50<50 nM'
[2] = Flp-In T-REx 293 cells stably expressing human TRPV4, compounds listed by potency bin (<10 nM Tables 96-1/96-2, <3 nM Table 97)

T1 sequence (Q9HBA0 whole entry): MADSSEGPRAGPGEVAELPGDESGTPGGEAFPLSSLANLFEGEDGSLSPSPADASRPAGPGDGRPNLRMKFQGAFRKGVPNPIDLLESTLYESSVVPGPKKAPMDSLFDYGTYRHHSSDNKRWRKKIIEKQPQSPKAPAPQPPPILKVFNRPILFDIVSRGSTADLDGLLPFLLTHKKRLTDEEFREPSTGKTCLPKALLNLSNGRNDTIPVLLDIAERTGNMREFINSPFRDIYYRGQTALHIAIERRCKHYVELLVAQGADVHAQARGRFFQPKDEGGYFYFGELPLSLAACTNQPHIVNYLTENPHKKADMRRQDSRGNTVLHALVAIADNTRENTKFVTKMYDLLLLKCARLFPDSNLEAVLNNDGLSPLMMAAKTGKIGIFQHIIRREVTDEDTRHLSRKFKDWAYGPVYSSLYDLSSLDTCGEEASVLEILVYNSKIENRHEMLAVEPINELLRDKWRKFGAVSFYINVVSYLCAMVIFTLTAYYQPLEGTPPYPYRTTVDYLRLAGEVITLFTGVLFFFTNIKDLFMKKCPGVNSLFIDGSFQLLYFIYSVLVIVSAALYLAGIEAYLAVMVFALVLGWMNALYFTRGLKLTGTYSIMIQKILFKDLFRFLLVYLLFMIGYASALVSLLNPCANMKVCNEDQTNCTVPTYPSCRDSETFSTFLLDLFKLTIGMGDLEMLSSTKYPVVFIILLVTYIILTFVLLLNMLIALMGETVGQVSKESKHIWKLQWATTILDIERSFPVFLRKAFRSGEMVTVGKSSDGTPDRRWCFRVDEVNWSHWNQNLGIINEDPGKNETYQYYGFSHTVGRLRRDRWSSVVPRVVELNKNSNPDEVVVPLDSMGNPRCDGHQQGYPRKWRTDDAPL

SMILES	IC50 [1] [µM]	IC50 [2] [µM]
O=C(C(O)c1cccc(OCc2ccccc2)c1)N1CCc2nc(C3(c4ccccc4)CC3)[nH]c(=O)c2C1 (centres unmarked) [14-111]	< 0.05	
O=C([C@H](O)c1cccc(C(F)(F)F)c1)N1CCCc2nc(C3(c4cccc(OCc5ccccc5)c4)CC3)[nH]c(=O)c2C1 [17-90]	< 0.05	< 0.01
O=C(Cc1cccc(C(F)(F)F)c1)N1CCCc2nc(C3(c4cccc(Cl)c4)CC3)[nH]c(=O)c2C1 [17-110]	< 0.05	< 0.01
O=C([C@H](O)c1cccc(Cl)c1)N1CCCc2nc(C3(c4cccc(Cl)c4)CC3)[nH]c(=O)c2C1 [17-29]	< 0.05	< 0.01
N#Cc1ccc(-c2cccc(CC(=O)N3CCCc4nc(C5(c6cccc(Cl)c6)CC5)[nH]c(=O)c4C3)c2)cc1 [17-126]	< 0.05	< 0.01
O=C([C@H](O)c1cccc(C(F)(F)F)c1)N1CCCc2nc(C3(c4cccc(-c5ccc6ncsc6c5)c4)CC3)[nH]c(=O)c2C1 [17-94]	< 0.05	< 0.01
O=C(Cc1cccc(SC(F)(F)F)c1)N1CCCc2nc(C3(c4cccc(Cl)c4)CC3)[nH]c(=O)c2C1 [17-113]	< 0.05	< 0.01
CC(C)c1cccc(C2(c3nc4c(c(=O)[nH]3)CN(C(=O)C(O)c3cccc(S(F)(F)(F)(F)F)c3)CCC4)CC2)c1 (centres unmarked) [17-39]	< 0.05	< 0.01
CC(C)(C)c1cccc(C(O)C(=O)N2CCCc3nc(C4(c5cccc(F)c5)CC4)[nH]c(=O)c3C2)c1 (centres unmarked) [17-21]	< 0.05	< 0.01
O=C(Cc1cccc(-c2ccc(Cl)cc2)c1)N1CCc2nc(C3(c4cccc(Cl)c4)CC3)[nH]c(=O)c2C1 [14-119]	< 0.05	
O=C(C(O)c1cccc(Cl)c1F)N1CCc2nc(C3(c4cccc(Cl)c4)CC3)[nH]c(=O)c2C1 (centres unmarked) [14-28]	< 0.05	
O=C([C@H](O)c1cccc(C(F)(F)F)c1)N1CCCc2nc(C3(c4cccc(C(F)(F)F)c4)CC3)[nH]c(=O)c2C1 [17-3]	< 0.05	< 0.003
O=C(C(O)c1cccc(C(F)(F)F)c1F)N1CCc2nc(C3(c4cccc(Cl)c4)CC3)[nH]c(=O)c2C1 (centres unmarked) [14-20]	< 0.05	
O=C(C(O)c1cccc(Oc2ccccc2)c1)N1CCCc2nc(C3(c4ccccc4)CC3)[nH]c(=O)c2C1 (centres unmarked) [17-85]	< 0.05	
O=C([C@H](O)c1cccc(C(F)(F)F)c1)N1CCCc2nc(C3(c4cccc(Oc5ccccc5)c4)CC3)[nH]c(=O)c2C1 [17-72]	< 0.05	< 0.01
O=C(Cc1cccc(OCc2ccccc2)c1)N1CCCc2nc(C3(c4ccccc4)CC3)[nH]c(=O)c2C1 [17-146]	< 0.05	< 0.01
O=C(C(O)c1cccc(-c2ccc(Cl)cc2)c1)N1CCc2nc(C3(c4cccc(F)c4)CC3)[nH]c(=O)c2C1 (centres unmarked) [14-24]	< 0.05	
O=C(C(O)c1cccc(Oc2cccc(C(F)(F)F)c2)c1)N1CCCc2nc(C3(c4cccc(Cl)c4)CC3)[nH]c(=O)c2C1 (centres unmarked) [17-40]	< 0.05	< 0.01
O=C(C(O)c1cccc(OCC(F)(F)F)c1)N1CCCc2nc(C3(c4cccc(Cl)c4)CC3)[nH]c(=O)c2C1 (centres unmarked) [17-50]	< 0.05	
O=C(Cc1cccc(C(F)(F)F)c1)N1CCCc2nc(C3(c4ccccc4)CC3)[nH]c(=O)c2C1 [17-51]	< 0.05	
O=C(Cc1ccccc1OCc1ccccc1)N1CCCc2nc(C3(c4ccccc4)CC3)[nH]c(=O)c2C1 [17-145]	< 0.05	< 0.01

Now from value to compound:

IC50 [1] [µM]	IC50 [2] [µM]	SMILES
< 0.05	< 0.01	O=C([C@H](O)c1cccc(-c2cccc(OCc3ccccc3)c2)c1)N1CCCc2nc(C3(c4ccccc4)CC3)[nH]c(=O)c2C1 [49-26]
< 0.05		O=C(C(O)c1cccc(-c2cncc(C(F)(F)F)c2)c1)N1CCc2nc(C3(c4ccccc4)CC3)[nH]c(=O)c2C1 (centres unmarked) [44-19]
< 0.05	< 0.01	CNc1cc(-c2cccc(C3(c4nc5c(c(=O)[nH]4)CN(C(=O)[C@H](O)c4cccc(C(F)(F)F)c4)CCC5)CC3)c2)ccn1 [42-32]
< 0.05	< 0.01	O=C([C@H](O)c1cccc(-c2ccc(Cl)c(Cl)c2)c1)N1CCc2nc(C3(c4ccccc4)CC3)[nH]c(=O)c2C1 [44-101]
< 0.05	< 0.01	O=C([C@H](O)c1cccc(-c2ccc(F)c(Cl)c2)c1)N1CCCc2nc(C3(c4cccc(Cl)c4)CC3)[nH]c(=O)c2C1 [50-21]
< 0.05	< 0.01	O=C([C@H](O)c1cccc(C(F)(F)F)c1)N1CCc2nc(C3(c4cccc(C5CCOCC5)c4)CC3)[nH]c(=O)c2C1 [27-3]
< 0.05	< 0.003	N#CC1(c2ccc(-c3cccc(C4(c5nc6c(c(=O)[nH]5)CN(C(=O)[C@H](O)c5cccc(Cl)c5)CCC6)CC4)c3)cc2)CC1 [40-15]
< 0.05		O=C([C@H](O)c1cccc(C(F)(F)F)c1)N1CCCc2nc(C3(c4cccc(-c5ccc(CN6CCCC6)cc5)c4)CC3)[nH]c(=O)c2C1 [42-52]
< 0.05	< 0.01	O=C(Cc1cccc(-c2cccc(C(F)(F)F)n2)c1)N1CCCc2nc(C3(c4cccc(Cl)c4)CC3)[nH]c(=O)c2C1 [57-7]
< 0.05	< 0.01	O=C([C@H](O)c1cccc(-c2cccc(SC(F)(F)F)c2)c1)N1CCCc2nc(C3(c4ccccc4)CC3)[nH]c(=O)c2C1 [49-53]
< 0.05		O=C([C@H](O)c1cccc(C(F)(F)F)c1)N1CCc2nc(C3(c4cc(C5CCOCC5)cs4)CC3)[nH]c(=O)c2C1 [26-2]
< 0.05	< 0.01	O=C([C@H](O)c1cccc(C(F)(F)F)c1)N1CCCc2nc(C3(c4cccc(-c5ccccc5)c4)CC3)[nH]c(=O)c2C1 [42-16]
< 0.05	< 0.003	O=C(C(O)c1cccc(C(F)(F)F)c1F)N1CCCc2nc(C3(c4cccs4)CC3)[nH]c(=O)c2C1 (centres unmarked) [18-3]
< 0.05	< 0.003	COc1ccc(-c2cccc(C3(c4nc5c(c(=O)[nH]4)CN(C(=O)[C@H](O)c4cccc(C(F)(F)F)c4)CCC5)CC3)c2)cn1 [42-7]
< 0.05		O=C([C@H](O)c1cccc(-c2ccc3c(c2)OCCCO3)c1)N1CCc2nc(C3(c4ccccc4)CC3)[nH]c(=O)c2C1 [44-106]
< 0.05	< 0.003	O=C([C@H](O)c1cccc(C(F)(F)F)c1)N1CCCc2nc(C3(c4cncc(-c5ccccc5)c4)CC3)[nH]c(=O)c2C1 [43-1]
< 0.05		O=C(N1CCc2nc(C3(c4ccccc4)CC3)[nH]c(=O)c2C1)C(F)(F)c1cccc(C(F)(F)F)c1 [20-9]
< 0.05	< 0.01	O=C([C@H](O)c1cccc(C(F)(F)F)c1F)N1CCCc2nc(C3(c4cncc(-c5ccccc5)c4)CC3)[nH]c(=O)c2C1 [19-3]

IC50 [1] [µM]	IC50 [2] [µM]	SMILES
< 0.05		O=C(C(O)c1cncc(-c2ccnc(C(F)(F)F)c2)c1)N1CCc2nc(C3(c4ccccc4)CC3)[nH]c(=O)c2C1 (centres unmarked) [48-7]
< 0.05	< 0.003	CC(C)c1cncc(C2(c3nc4c(c(=O)[nH]3)CN(C(=O)C(F)(F)c3cccc(Cl)c3)CCC4)CC2)c1 [22-3]
< 0.05		CN(C)Cc1cccc(-c2cccc(C3(c4nc5c(c(=O)[nH]4)CN(C(=O)[C@H](O)c4cccc(C(F)(F)F)c4)CCC5)CC3)c2)c1 [42-36]
< 0.05	< 0.01	O=C(Cc1ccccc1)N1CCC(c2cccc(C3(c4nc5c(c(=O)[nH]4)CN(C(=O)[C@H](O)c4cccc(C(F)(F)F)c4)CCC5)CC3)c2)CC1 [31-9]
< 0.05	< 0.003	O=C([C@H](O)c1cccc(C(F)(F)F)c1)N1CCCc2nc(C3(c4cccc(-c5cnc(N6CCCC6)nc5)c4)CC3)[nH]c(=O)c2C1 [42-3]
< 0.05		Cc1cccc(-c2cccc(C(O)C(=O)N3CCc4nc(C5(c6ccccc6)CC5)[nH]c(=O)c4C3)c2)c1 (centres unmarked) [44-51]
< 0.05	< 0.01	O=C([C@H](O)c1cccc(C(F)(F)F)c1)N1CCCc2nc(C3(c4cccc(C5=CCN(S(=O)(=O)Cc6ccccc6)CC5)c4)CC3)[nH]c(=O)c2C1 [42-78]
< 0.05	< 0.003	O=C([C@H](O)c1cccc(-c2cc3ccccc3s2)c1)N1CCCc2nc(C3(c4ccccc4)CC3)[nH]c(=O)c2C1 [49-28]
< 0.05	< 0.01	O=C([C@H](O)c1cccc(-c2csc3ccccc23)c1)N1CCCc2nc(C3(c4ccccc4)CC3)[nH]c(=O)c2C1 [49-24]
< 0.05	< 0.003	O=C([C@H](O)c1cccc(-c2cccc(C(F)(F)F)n2)c1)N1CCCc2nc(C3(c4ccccc4)CC3)[nH]c(=O)c2C1 [49-22]
< 0.05	< 0.003	COCCOc1cccc(-c2cccc(C3(c4nc5c(c(=O)[nH]4)CN(C(=O)[C@H](O)c4cccc(Cl)c4)CCC5)CC3)c2)c1 [40-22]
< 0.05	< 0.003	O=C(Cc1cccc(-c2cccc(OC(F)(F)F)c2)c1)N1CCCc2nc(C3(c4ccccc4)CC3)[nH]c(=O)c2C1 [57-2]
< 0.05	< 0.01	O=C([C@H](O)c1cccc(-c2cc(Cl)cc(Cl)c2)c1)N1CCCc2nc(C3(c4ccccc4)CC3)[nH]c(=O)c2C1 [49-35]
< 0.05	< 0.01	O=C([C@H](O)c1cccc(-c2cccc(OC(F)(F)F)c2)c1)N1CCCc2nc(C3(c4cc(C5CCCCC5)cs4)CC3)[nH]c(=O)c2C1 [54-11]
< 0.05	< 0.01	O=C([C@H](O)c1cccc(-c2ccc(C(F)(F)F)cc2)c1)N1CCCc2nc(C3(c4cccc(Cl)c4)CC3)[nH]c(=O)c2C1 [50-24]
< 0.05	< 0.01	Cc1cc(Cl)cc(-c2cccc([C@@H](O)C(=O)N3CCCc4nc(C5(c6ccccc6)CC5)[nH]c(=O)c4C3)c2)c1 [49-29]
< 0.05	< 0.01	O=C([C@H](O)c1cccc(-c2csc3ccccc23)c1)N1CCCc2nc(C3(c4cccc(C5CCCCC5)c4)CC3)[nH]c(=O)c2C1 [52-6]
< 0.05	< 0.01	N#Cc1cc(C#N)cc(-c2cccc(C3(c4nc5c(c(=O)[nH]4)CN(C(=O)[C@H](O)c4cccc(C(F)(F)F)c4)CCC5)CC3)c2)c1 [42-71]
